Measurements: PubChem BioAssay AID1963435 (Molecular Pharmacology Branch, DTP, NCI, 2024)

Tested on: PANC-1 complex spheroid growth, percent test/control
Assay: Anticancer human tumor PANC-1 cell line growth inhibition [Asc];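 further: spheroids exposed to agents for 7 days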;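 on viability, T/C: percent viability relative to DMSO vehicle wells taken as 100%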
Details: for IC50: curve of first compound; for viability, T/C: stronger effect = lower value
In short: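 Concentration series start at each agent's clinical Cmax, or at 10 microM when none is established, and drop in half-log steps; agents are applied alone or together to complex spheroids built with HUVEC and hMSC.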

`NC(=O)C(=Cn1cnc(-c2cc(C(F)(F)F)cc(C(F)(F)F)c2)n1)c1cncnc1` + CCN1C(C(=O)NC23CCC(C(=O)O)(CC2)CC3)C(c2cccc(Cl)c2F)C2(C(=O)Nc3cc(Cl)ccc32)C12CCCCC2 was tested, and the IC50 (second compound 0.00949 µM) was greater than 300 nM, the IC50 (second compound 0.03 µM) was greater than 300 nM and the IC50 (second compound 0.0949 µM) was greater than 300 nM. It also gave an IC50 (second compound 0.3 µM) greater than 300 nM, an IC50 (second compound 0.949 µM) greater than 300 nM and an IC50 (second compound 3 µM) greater than 300 nM. The viability, T/C (second compound 0.00949 µM, first compound 0.000949 µM) was 101%, the viability, T/C (second compound 0.00949 µM, first compound 0.003 µM) was 90.1% and the viability, T/C (second compound 0.00949 µM, first compound 0.00949 µM) was 90%. For the same molecule, the viability, T/C (second compound 0.00949 µM, first compound 0.03 µM) was 104%, the viability, T/C (second compound 0.00949 µM, first compound 0.0949 µM) was 114% and the viability, T/C (second compound 0.00949 µM, first compound 0.3 µM) was 92.2%. The viability, T/C (second compound 0.03 µM, first compound 0.000949 µM) was 95.6%, the viability, T/C (second compound 0.03 µM, first compound 0.003 µM) was 95.5% and the viability, T/C (second compound 0.03 µM, first compound 0.00949 µM) was 98.6%. It also gave a viability, T/C (second compound 0.03 µM, first compound 0.03 µM) of 91.3%, a viability, T/C (second compound 0.03 µM, first compound 0.0949 µM) of 115% and a viability, T/C (second compound 0.03 µM, first compound 0.3 µM) of 104%. It also gave a viability, T/C (second compound 0.0949 µM, first compound 0.000949 µM) of 89.6%, a viability, T/C (second compound 0.0949 µM, first compound 0.003 µM) of 101% and a viability, T/C (second compound 0.0949 µM, first compound 0.00949 µM) of 90.1%. For the same molecule, the viability, T/C (second compound 0.0949 µM, first compound 0.03 µM) was 92.4%, the viability, T/C (second compound 0.0949 µM, first compound 0.0949 µM) was 117% and the viability, T/C (second compound 0.0949 µM, first compound 0.3 µM) was 99.5%. It also gave a viability, T/C (second compound 0.3 µM, first compound 0.000949 µM) of 100%, a viability, T/C (second compound 0.3 µM, first compound 0.003 µM) of 89.6% and a viability, T/C (second compound 0.3 µM, first compound 0.00949 µM) of 89.1%. The viability, T/C (second compound 0.3 µM, first compound 0.03 µM) was 103%, the viability, T/C (second compound 0.3 µM, first compound 0.0949 µM) was 117% and the viability, T/C (second compound 0.3 µM, first compound 0.3 µM) was 93.8%. It also gave a viability, T/C (second compound 0.949 µM, first compound 0.000949 µM) of 97.5%, a viability, T/C (second compound 0.949 µM, first compound 0.003 µM) of 100% and a viability, T/C (second compound 0.949 µM, first compound 0.00949 µM) of 105%. It also gave a viability, T/C (second compound 0.949 µM, first compound 0.03 µM) of 99.3%, a viability, T/C (second compound 0.949 µM, first compound 0.0949 µM) of 125% and a viability, T/C (second compound 0.949 µM, first compound 0.3 µM) of 97.7%. The viability, T/C (second compound 3 µM, first compound 0.000949 µM) was 120%, the viability, T/C (second compound 3 µM, first compound 0.003 µM) was 107% and the viability, T/C (second compound 3 µM, first compound 0.00949 µM) was 113%. For the same molecule, the viability, T/C (second compound 3 µM, first compound 0.03 µM) was 112%, the viability, T/C (second compound 3 µM, first compound 0.0949 µM) was 121% and the viability, T/C (second compound 3 µM, first compound 0.3 µM) was 96.6%.

With `CCN1CCN(Cc2ccc(Nc3ncc(F)c(-c4cc(F)c5nc(C)n(C(C)C)c5c4)n3)nc2)CC1` + Cc1c(S(C)(=O)=O)c(-c2cc(F)cc(N3CCN(c4ccc(NS(=O)(=O)c5ccc(NC(CCN6CCC(C(=O)OCCCP(=O)(O)O)CC6)CSc6ccccc6)c(S(=O)(=O)C(F)(F)F)c5)cc4)CC3)c2)c(-c2ccc(Cl)cc2)n1C(C)C the IC50 (second compound 0.0316 µM) was greater than 1000 nM, the IC50 (second compound 0.1 µM) was greater than 1000 nM and the IC50 (second compound 0.316 µM) was greater than 1000 nM. The IC50 (second compound 1 µM) was greater than 1000 nM, the IC50 (second compound 3.16 µM) was greater than 1000 nM and the IC50 (second compound 10 µM) was greater than 1000 nM. For the same molecule, the viability, T/C (second compound 0.0316 µM, first compound 0.00316 µM) was 93.5%, the viability, T/C (second compound 0.0316 µM, first compound 0.01 µM) was 108% and the viability, T/C (second compound 0.0316 µM, first compound 0.0316 µM) was 102%. The viability, T/C (second compound 0.0316 µM, first compound 0.1 µM) was 121%, the viability, T/C (second compound 0.0316 µM, first compound 0.316 µM) was 124% and the viability, T/C (second compound 0.0316 µM, first compound 1 µM) was 129%. It also gave a viability, T/C (second compound 0.1 µM, first compound 0.00316 µM) of 96%, a viability, T/C (second compound 0.1 µM, first compound 0.01 µM) of 100% and a viability, T/C (second compound 0.1 µM, first compound 0.0316 µM) of 99.5%. For the same molecule, the viability, T/C (second compound 0.1 µM, first compound 0.1 µM) was 115%, the viability, T/C (second compound 0.1 µM, first compound 0.316 µM) was 121% and the viability, T/C (second compound 0.1 µM, first compound 1 µM) was 137%. The viability, T/C (second compound 0.316 µM, first compound 0.00316 µM) was 105%, the viability, T/C (second compound 0.316 µM, first compound 0.01 µM) was 116% and the viability, T/C (second compound 0.316 µM, first compound 0.0316 µM) was 108%. The viability, T/C (second compound 0.316 µM, first compound 0.1 µM) was 103%, the viability, T/C (second compound 0.316 µM, first compound 0.316 µM) was 123% and the viability, T/C (second compound 0.316 µM, first compound 1 µM) was 127%. For the same molecule, the viability, T/C (second compound 1 µM, first compound 0.00316 µM) was 104%, the viability, T/C (second compound 1 µM, first compound 0.01 µM) was 101% and the viability, T/C (second compound 1 µM, first compound 0.0316 µM) was 115%. The viability, T/C (second compound 1 µM, first compound 0.1 µM) was 126%, the viability, T/C (second compound 1 µM, first compound 0.316 µM) was 115% and the viability, T/C (second compound 1 µM, first compound 1 µM) was 125%. For the same molecule, the viability, T/C (second compound 3.16 µM, first compound 0.00316 µM) was 110%, the viability, T/C (second compound 3.16 µM, first compound 0.01 µM) was 104% and the viability, T/C (second compound 3.16 µM, first compound 0.0316 µM) was 102%. The viability, T/C (second compound 3.16 µM, first compound 0.1 µM) was 120%, the viability, T/C (second compound 3.16 µM, first compound 0.316 µM) was 123% and the viability, T/C (second compound 3.16 µM, first compound 1 µM) was 125%. For the same molecule, the viability, T/C (second compound 10 µM, first compound 0.00316 µM) was 171%, the viability, T/C (second compound 10 µM, first compound 0.01 µM) was 188% and the viability, T/C (second compound 10 µM, first compound 0.0316 µM) was 174%. For the same molecule, the viability, T/C (second compound 10 µM, first compound 0.1 µM) was 175%, the viability, T/C (second compound 10 µM, first compound 0.316 µM) was 168% and the viability, T/C (second compound 10 µM, first compound 1 µM) was 140%.

Work on `COc1c(OCCCN2CCOCC2)ccc2c3n(c(=NC(=O)c4cnc(N)nc4)nc12)CCN3` + CCN1C(C(=O)NC23CCC(C(=O)O)(CC2)CC3)C(c2cccc(Cl)c2F)C2(C(=O)Nc3cc(Cl)ccc32)C12CCCCC2 yielded an IC50 (second compound 0.00949 µM) of 315 nM, an IC50 (second compound 0.03 µM) of 423 nM and an IC50 (second compound 0.0949 µM) of 267 nM. It also gave an IC50 (second compound 0.3 µM) of 306 nM, an IC50 (second compound 0.949 µM) of 279 nM and an IC50 (second compound 3 µM) of 284 nM. For the same molecule, the viability, T/C (second compound 0.00949 µM, first compound 0.00316 µM) was 87.6%, the viability, T/C (second compound 0.00949 µM, first compound 0.01 µM) was 96.3% and the viability, T/C (second compound 0.00949 µM, first compound 0.0316 µM) was 101%. The viability, T/C (second compound 0.00949 µM, first compound 0.1 µM) was 85.2%, the viability, T/C (second compound 0.00949 µM, first compound 0.316 µM) was 50.2% and the viability, T/C (second compound 0.00949 µM, first compound 1 µM) was 30.3%. The viability, T/C (second compound 0.03 µM, first compound 0.00316 µM) was 91.7%, the viability, T/C (second compound 0.03 µM, first compound 0.01 µM) was 91.1% and the viability, T/C (second compound 0.03 µM, first compound 0.0316 µM) was 97.2%. It also gave a viability, T/C (second compound 0.03 µM, first compound 0.1 µM) of 76.7%, a viability, T/C (second compound 0.03 µM, first compound 0.316 µM) of 56% and a viability, T/C (second compound 0.03 µM, first compound 1 µM) of 35.8%. It also gave a viability, T/C (second compound 0.0949 µM, first compound 0.00316 µM) of 94.9%, a viability, T/C (second compound 0.0949 µM, first compound 0.01 µM) of 101% and a viability, T/C (second compound 0.0949 µM, first compound 0.0316 µM) of 92.5%. For the same molecule, the viability, T/C (second compound 0.0949 µM, first compound 0.1 µM) was 70.5%, the viability, T/C (second compound 0.0949 µM, first compound 0.316 µM) was 47.9% and the viability, T/C (second compound 0.0949 µM, first compound 1 µM) was 31.2%. The viability, T/C (second compound 0.3 µM, first compound 0.00316 µM) was 110%, the viability, T/C (second compound 0.3 µM, first compound 0.01 µM) was 106% and the viability, T/C (second compound 0.3 µM, first compound 0.0316 µM) was 95.2%. The viability, T/C (second compound 0.3 µM, first compound 0.1 µM) was 77.1%, the viability, T/C (second compound 0.3 µM, first compound 0.316 µM) was 47.5% and the viability, T/C (second compound 0.3 µM, first compound 1 µM) was 35.8%. For the same molecule, the viability, T/C (second compound 0.949 µM, first compound 0.00316 µM) was 108%, the viability, T/C (second compound 0.949 µM, first compound 0.01 µM) was 96.7% and the viability, T/C (second compound 0.949 µM, first compound 0.0316 µM) was 95.6%. The viability, T/C (second compound 0.949 µM, first compound 0.1 µM) was 75.3%, the viability, T/C (second compound 0.949 µM, first compound 0.316 µM) was 45.9% and the viability, T/C (second compound 0.949 µM, first compound 1 µM) was 34.5%. It also gave a viability, T/C (second compound 3 µM, first compound 0.00316 µM) of 118%, a viability, T/C (second compound 3 µM, first compound 0.01 µM) of 109% and a viability, T/C (second compound 3 µM, first compound 0.0316 µM) of 92%. The viability, T/C (second compound 3 µM, first compound 0.1 µM) was 79.3%, the viability, T/C (second compound 3 µM, first compound 0.316 µM) was 42.2% and the viability, T/C (second compound 3 µM, first compound 1 µM) was 32.5%.
